The target in data set [1] is T1, N-formyl peptide receptor 2 (Homo sapiens) (UniProt P25090).
T1 sequence (whole entry): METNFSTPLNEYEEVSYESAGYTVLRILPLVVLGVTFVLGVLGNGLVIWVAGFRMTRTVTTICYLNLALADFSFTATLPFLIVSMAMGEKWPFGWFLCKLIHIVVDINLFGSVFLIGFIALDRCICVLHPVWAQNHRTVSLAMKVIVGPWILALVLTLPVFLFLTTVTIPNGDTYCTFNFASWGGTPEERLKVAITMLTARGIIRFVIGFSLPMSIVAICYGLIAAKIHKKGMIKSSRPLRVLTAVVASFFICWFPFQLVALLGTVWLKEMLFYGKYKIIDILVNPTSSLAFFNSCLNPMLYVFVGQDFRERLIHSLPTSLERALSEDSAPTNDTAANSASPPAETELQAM
Description: Induction of calcium release in human FPR2 receptor-expressed HEK cell at 10 uM measured after second challenge by cytosolic-free calcium assay. Type of data set: functional, cell-based. The settings on record: HEK293.

For data set [2], the target named is T1, N-formyl peptide receptor 2 (Homo sapiens). Description: Induction of calcium release in human FPR2 receptor-expressed HEK cell assessed as calcium release through Cav1.2 channel at 10 uM by cytosolic-free calcium assay in presence of 30 uM ATP. Type of data set: functional, cell-based. As to conditions: HEK293.
The test system of data set [3] is Neutrophil. Description: Induction of […]-induced migration in human neutrophils preincubated at 10 uM after 45 mins by chemotaxis assay. It counts as functional, cell-based.
Data set [4] deals with Neutrophil. In words: Induction of ERK1/2-mediated directional migration in human neutrophils assessed as fluorescence of calcein at 10 uM after 45 mins by chemotaxis assay. It counts as functional, cell-based.
Data set [5] relates to Mus musculus. In words: Induction of leukocyte recruitment in C57BL/6 mouse assessed as increase in number of neutrophils in blood at 40 ug, ip tid relative to NaCl treated control. It counts as functional, organism-based.
Data set [6] in a line: Hemolytic activity in fresh rat erythrocytes assessed as optical density after 60 mins. It counts as ADME, cell-based. The settings on record: erythrocyte, 1 h.
Data set [7] relates to T-cell. In words: Induction of ERK1/2-mediated directional migration in human T cell assessed as fluorescence of calcein at 10 uM after 45 mins by chemotaxis assay. Type of data set: functional, cell-based.
Data set [8] concerns Neutrophil. In words: Induction of ERK1/2-mediated directional migration in human neutrophils assessed as fluorescence of calcein at 10 uM after 45 mins by chemotaxis assay in presence of SB202190 MAPK inhibitor. It counts as functional, cell-based.
The test system of data set [9] is Mus musculus. In words: Induction of leukocyte recruitment in C57BL/6 mouse assessed as increase in number of macrophages in peritoneal cavity at 40 ug, ip tid 4 hr before pretreated with 3% thioglycollate relative to NaCl treated control. It counts as functional, organism-based.
Data set [10] relates to T-cell. Description: Induction of ERK1/2-mediated directional migration in human T cell assessed as fluorescence of calcein at 10 uM after 45 mins by chemotaxis assay in presence of natural compound. It counts as functional, cell-based.
Data set [11] has as its target T2, Formyl peptide receptor-related sequence 1 (Mus musculus, UniProt O08790).
T2 sequence (O08790 whole entry): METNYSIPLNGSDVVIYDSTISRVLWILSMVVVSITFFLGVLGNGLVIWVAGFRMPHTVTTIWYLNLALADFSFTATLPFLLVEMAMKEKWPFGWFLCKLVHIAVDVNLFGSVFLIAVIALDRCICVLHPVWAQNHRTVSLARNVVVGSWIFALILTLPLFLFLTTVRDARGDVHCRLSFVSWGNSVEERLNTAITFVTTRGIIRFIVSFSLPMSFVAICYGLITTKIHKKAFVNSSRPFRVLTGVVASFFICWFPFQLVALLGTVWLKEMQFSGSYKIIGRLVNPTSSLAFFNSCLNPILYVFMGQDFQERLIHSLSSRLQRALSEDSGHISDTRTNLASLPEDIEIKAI
Description: (§1) Induction of calcium release in mouse FPR2 receptor-expressed HEK cell by cytosolic-free calcium assay. Type of data set: functional, HEK293.

In data set [12] the target is T3, Formyl peptide receptor-related sequence 1 (Mus musculus) (UniProt O08790).
T3 sequence (whole entry): T2 sequence (O08790 whole entry)
The description is as §1. It counts as functional. The settings on record: HEK293.

Data set [13] concerns Neutrophil. In words: Induction of ERK1/2-mediated directional migration in human neutrophils assessed as fluorescence of calcein at 10 uM after 45 mins by chemotaxis assay in presence of PD98059 MEK1/2 inhibitor. Type of data set: functional, cell-based.
Data set [14] deals with Neutrophil. Description: Induction of migration in human neutrophils at 10 uM after 45 mins by chemotaxis assay in presence of preincubation of 0.1 uM fMLP. It counts as functional, cell-based.
Data set [15] deals with Neutrophil. Description: Induction of ERK1/2-mediated directional migration in mouse neutrophils assessed as fluorescence of calcein at 10 uM after 45 mins by chemotaxis assay in presence of natural compound. It counts as functional, cell-based.
Data set [16] concerns Neutrophil. Description: Induction of ERK1/2-mediated directional migration in human neutrophils assessed as fluorescence of calcein at 10 uM after 45 mins by chemotaxis assay in presence of pertussis toxin. Type of data set: functional, cell-based.
The test system of data set [17] is Neutrophil. Description: Induction of ERK1/2-mediated directional migration in human neutrophils assessed as fluorescence of calcein at 10 uM after 45 mins by chemotaxis assay in presence of natural compound. Type of data set: functional, cell-based.
Data set [18] has as its system Monocyte. Description: Induction of ERK1/2-mediated directional migration in human monocytes assessed as fluorescence of calcein at 10 uM after 45 mins by chemotaxis assay in presence of natural compound. It counts as functional, cell-based.
The subject of data set [19] is Mus musculus. In words: Induction of leukocyte recruitment in C57BL/6 mouse assessed as increase in number of monocytes in blood at 40 ug, ip tid 4 hr before pretreated with 3% thioglycollate relative to NaCl treated control. It counts as functional, organism-based.
For data set [20], the system named is Mus musculus. Description: Induction of leukocyte recruitment in C57BL/6 mouse assessed as increase in number of monocytes in peritoneal cavity at 40 ug, ip tid 4 hr before pretreated with 3% thioglycollate relative to NaCl treated control. It counts as functional, organism-based.
Data set [21] concerns the target T1, N-formyl peptide receptor 2 (Homo sapiens). Description: Binding affinity to human FPR2 receptor expressed in HEK cells assessed as heat release at 155 nmol by isothermal titration calorimetry. The settings on record: HEK293. Background: ITC needs no label: the signal is the heat of the interaction.
Data set [22] relates to Monocyte. In words: Induction of ERK1/2-mediated directional migration in mouse monocytes assessed as fluorescence of calcein at 10 uM after 45 mins by chemotaxis assay. It counts as functional, cell-based.
Data set [23] relates to HEK293. Description: Induction of HEK cell migration at 10 uM. It counts as functional, cell-based. The settings on record: Homo sapiens.
Data set [24] deals with Escherichia coli. Description: Induction of membrane disruption in Escherichia coli assessed as bacterial leakage by measuring Gal-ONp hydrolysis. Type of data set: organism-based.
Data set [25] deals with Neutrophil. In words: Induction of migration in human neutrophils at 10 uM after 45 mins by chemotaxis assay in presence of preincubation of 10 uM fMLP. Type of data set: functional, cell-based.
In data set [26] the test system is Mus musculus. In words: Induction of leukocyte recruitment in C57BL/6 mouse assessed as increase in number of neutrophils in blood at 40 ug, ip tid 4 hr before pretreated with 3% thioglycollate relative to NaCl treated control. Type of data set: functional, organism-based.
For data set [27], the target named is T1, N-formyl peptide receptor 2 (Homo sapiens). In words: (§2) Induction of calcium release in human FPR2 receptor-expressed HEK cell by cytosolic-free calcium assay. As to conditions: HEK293. It counts as functional, cell-based.
Data set [28] concerns the target T4, N-formyl peptide receptor 2 (Homo sapiens, UniProt P25090).
T4 sequence (P25090 whole entry): T1 sequence (whole entry)
Described as §2. Type of data set: functional, cell-based, HEK293.

The test system of data set [29] is Mus musculus. Description: Induction of leukocyte recruitment in C57BL/6 mouse assessed as increase in number of monocytes in blood at 40 ug, ip tid relative to NaCl treated control. It counts as functional, organism-based.
Data set [30] relates to Neutrophil. Description: Induction of migration in human neutrophils preincubated at 10 uM after 45 mins by chemotaxis assay in presence of 0.1 uM fMLP. It counts as functional, cell-based.
Data set [31] has as its target T1, N-formyl peptide receptor 2 (Homo sapiens). In words: Induction of human FPR2 receptor-expressed HEK cell migration at 10 uM. As to conditions: HEK293.
Data set [32] concerns Neutrophil. In words: Induction of ERK1/2-mediated directional migration in mouse neutrophils assessed as fluorescence of calcein at 10 uM after 45 mins by chemotaxis assay. Type of data set: functional, cell-based.
The target of data set [33] is T3, Formyl peptide receptor-related sequence 1 (Mus musculus). Description: Induction of mouse FPR2 receptor-expressed HEK cell migration at 10 uM. As to conditions: HEK293.
Data set [34] relates to Monocyte. Description: Induction of ERK1/2-mediated directional migration in mouse monocytes assessed as fluorescence of calcein at 10 uM after 45 mins by chemotaxis assay in presence of natural compound. Type of data set: functional, cell-based.
In data set [35] the test system is Staphylococcus aureus. In words: Antibacterial activity against Staphylococcus aureus ATCC 25923. It counts as functional.
Data set [36] relates to Neutrophil. Description: Induction of ERK1/2-mediated directional migration in human neutrophils assessed as enzyme phosphorylation at 10 uM by chemotaxis assay. Type of data set: functional, cell-based. The settings on record: TDE = time-dependent effect.
Data set [37] has as its system Mus musculus. In words: Induction of leukocyte recruitment in C57BL/6 mouse assessed as increase in number of neutrophils in peritoneal cavity at 40 ug, ip tid relative to NaCl treated control. It counts as functional, organism-based.
Data set [38] has as its system Mus musculus. In words: Induction of leukocyte recruitment in C57BL/6 mouse assessed as increase in number of monocytes in peritoneal cavity at 40 ug, ip tid relative to NaCl treated control. It counts as functional, organism-based.
Data set [39] concerns Monocyte. In words: Induction of ERK1/2-mediated directional migration in human monocytes assessed as fluorescence of calcein at 10 uM after 45 mins by chemotaxis assay. Type of data set: functional, cell-based.
Data set [40] has as its system HEK293. In words: Induction of calcium release in HEK cell at 10 uM by cytosolic-free calcium assay. It counts as functional, cell-based. As to conditions: Homo sapiens.
Data set [41] relates to Mus musculus. In words: Induction of leukocyte recruitment in C57BL/6 mouse assessed as increase in number of macrophages in blood at 40 ug, ip tid 4 hr before pretreated with 3% thioglycollate relative to NaCl treated control. Type of data set: functional, organism-based.
Data set [42] relates to Mus musculus. In words: Induction of leukocyte recruitment in C57BL/6 mouse assessed as increase in number of neutrophils in peritoneal cavity at 40 ug, ip tid 4 hr before pretreated with 3% thioglycollate relative to NaCl treated control. Type of data set: functional, organism-based.
Data set [43] deals with Neutrophil. In words: Induction of migration in human neutrophils preincubated at 10 uM after 45 mins by chemotaxis assay in presence of 10 uM fMLP. Type of data set: functional, cell-based.
The test system of data set [44] is Escherichia coli. In words: Antibacterial activity against Escherichia coli ATCC 11775. Type of data set: functional.

Results on two compounds are retold here after ChEMBL document CHEMBL3407365, “Pachymodulin, a new functional formyl peptide receptor 2 peptidic ligand isolated from frog skin has Janus-like immunomodulatory capacities” (J Med Chem, 2015).

As usually defined, the EC50 is the concentration needed to bring the measured effect to its halfway point. The term MIC denotes the least concentration at which growth counts as inhibited.

Activity calls are given as the source filed them. The calls are words filed in the database; no cut-off is given here. A value given as a limit tells only on which side of the number the result lay.

On to `CSCC[C@H](NC=O)C(=O)N[C@@H](CC(C)C)C(=O)N[C@@H](Cc1ccccc1)C(=O)O`, for which the outcome in data set [1] and in [3] was inactive. For the same compound, in [2], the result was Active.
Turning to H-SSLSKL-OH, the result in [4], in data set [5], in [2], in data set [7], in [21] and in [22] was Active. For the same compound, the outcome in data set [25], in data set [29], in data set [30], in data set [31], in data set [32] and in [33] was Active. Further, the result in data set [37], in [38], in data set [39] and in data set [43] was Active. Also, the outcome in data set [1], in data set [8], in data set [9], in data set [10], in [13] and in [14] was inactive. In addition, the result in [15], in data set [16], in data set [17], in [18], in data set [19] and in data set [20] was inactive. Moreover, the result in data set [23], in data set [26], in data set [34], in [40], in data set [41] and in [42] was inactive. Moreover, the Activity result in data set [6] was “Non-toxic”; in data set [12], “Dose-dependent effect”; in [24] it was “Non-toxic”; in data set [27], “Dose-dependent effect”; in [36] it was “tde”. The results for the EC50 in data set [11] and in data set [28] were 9 µM and 7.5 µM, respectively. Besides, the MIC in data set [35] and in data set [44] was over 100 µM throughout.
